Target: PIK3CA (human) (UniProt P42336)
Test: Inhibition of PIK3CA Kinase Activity

Sequence of PIK3CA (human) (P42336 whole entry, looked up): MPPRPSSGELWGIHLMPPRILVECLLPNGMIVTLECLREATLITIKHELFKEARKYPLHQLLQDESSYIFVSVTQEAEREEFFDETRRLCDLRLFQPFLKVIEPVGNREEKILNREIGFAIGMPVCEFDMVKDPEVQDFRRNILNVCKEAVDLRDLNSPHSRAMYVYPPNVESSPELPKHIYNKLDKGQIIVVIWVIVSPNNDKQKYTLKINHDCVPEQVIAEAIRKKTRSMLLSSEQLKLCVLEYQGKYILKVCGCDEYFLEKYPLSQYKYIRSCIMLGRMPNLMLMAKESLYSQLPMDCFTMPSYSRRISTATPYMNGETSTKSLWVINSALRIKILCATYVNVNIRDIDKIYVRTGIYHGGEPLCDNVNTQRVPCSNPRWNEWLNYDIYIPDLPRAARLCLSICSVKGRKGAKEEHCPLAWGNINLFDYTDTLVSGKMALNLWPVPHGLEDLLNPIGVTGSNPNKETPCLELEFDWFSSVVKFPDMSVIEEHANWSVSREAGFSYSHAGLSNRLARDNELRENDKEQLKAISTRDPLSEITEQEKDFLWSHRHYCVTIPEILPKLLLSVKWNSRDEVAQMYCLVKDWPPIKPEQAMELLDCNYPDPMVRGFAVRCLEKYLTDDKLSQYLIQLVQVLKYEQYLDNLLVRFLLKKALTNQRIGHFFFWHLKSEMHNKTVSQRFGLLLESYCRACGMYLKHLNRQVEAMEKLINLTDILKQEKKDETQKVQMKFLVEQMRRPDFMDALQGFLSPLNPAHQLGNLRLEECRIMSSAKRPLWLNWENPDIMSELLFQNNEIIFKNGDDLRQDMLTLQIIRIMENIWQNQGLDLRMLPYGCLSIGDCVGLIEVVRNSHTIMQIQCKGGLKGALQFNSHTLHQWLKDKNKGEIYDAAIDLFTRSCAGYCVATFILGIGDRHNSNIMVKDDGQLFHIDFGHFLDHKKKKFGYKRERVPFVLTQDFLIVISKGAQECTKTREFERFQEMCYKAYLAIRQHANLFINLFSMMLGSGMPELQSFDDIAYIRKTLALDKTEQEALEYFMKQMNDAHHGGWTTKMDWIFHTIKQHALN

SMILES	IC50 [nM]
COc1cc2ncnc(N3CCOc4ccc(-c5ccc6nc(C)[nH]c6c5)cc4C3)c2cc1I	10 to 50
Cc1nc(N)sc1-c1ccc2c(c1)CN(c1ncnc(C)c1Cc1ccc(F)cc1)CCO2	250 to 1000
CN1CCC(CNS(=O)(=O)c2cc(-c3ccc4c(c3)CN(c3ncnc5c3CC(C)(C)CC5)CCO4)cnc2N)CC1	10 to 50
CCNc1nc2ccc(-c3ccc4c(c3)CN(c3ncnc(C)c3Cc3ccc(F)cc3)CCO4)cc2[nH]1	≤ 10
Cc1nc2ccc(-c3ccc4c(c3)CN(c3ccnc(N)n3)CCO4)cc2[nH]1	250 to 1000
CNC1CN(S(=O)(=O)c2cc(-c3ccc4c(c3)CN(c3ncnc5c3CC(C)(C)CC5)CCO4)cnc2N)C1	10 to 50
CC1(C)CCc2ncnc(N3CCOc4ccc(-c5cnc(N)c(S(=O)(=O)N6CCC(N)C6)c5)cc4C3)c2C1 (stereo unspecified)	10 to 50
Cc1nc2ccc(-c3ccc4c(c3)CN(c3ncnc(C)c3Cc3ccc(F)cc3)CCO4)cc2[nH]1	10 to 50
COc1ccc2c(N3CCOc4ccc(-c5ccc(-c6ncc[nH]6)cc5)cc4C3)nc(C)nc2c1	≤ 10
Cc1nc2ccc(-c3ccc4c(c3)CN(c3ncnc5cc(I)ccc35)CCO4)cc2[nH]1	10 to 50
Cc1nc2cc(-c3ccc4c(c3)CN(c3nc(CN(C)C)nc(C)c3Br)CCO4)ccc2[nH]1	50 to 250
COC(=O)Nc1nc2ncc(-c3ccc4c(c3)CN(c3ncnc(C)c3Cc3ccc(F)cc3)CCO4)cc2[nH]1	≤ 10
CC1(C)CCc2ncnc(N3CCOc4ccc(-c5cnc(N)c(S(=O)(=O)NCCF)c5)cc4C3)c2C1	≤ 10
CCC(N)CNS(=O)(=O)c1cc(-c2ccc3c(c2)CN(c2ncnc4c2CC(C)(C)CC4)CCO3)cnc1N (stereo unspecified)	10 to 50
Cc1nc2ncc(-c3ccc4c(c3)CN(c3nc(CNC5CCC5)nc5c3CC(C)(C)CC5)CCO4)cc2[nH]1	10 to 50
COc1ccc2c(N3CCOc4ccc(-c5cnc(N)c([S+]([O-])C[C@@H](C)CO)c5)cc4C3)ncnc2c1 (stereo partly specified)	10 to 50
CC1(C)CCc2ncnc(N3CCOc4ccc(-c5ccc(Cl)c(NS(C)(=O)=O)c5)cc4C3)c2C1	250 to 1000
CC1(C)CCc2ncnc(N3CCOc4ccc(-c5cncc(S(N)(=O)=O)c5)cc4C3)c2C1	50 to 250
CCNc1nc2ccc(-c3ccc4c(c3)CN(c3nc(C)nc5ccccc35)CCO4)cc2[nH]1	10 to 50
CN(C)Cc1nc2c(c(N3CCOc4ccc(-c5ccc6scnc6c5)cc4C3)n1)CC(C)(C)CC2	250 to 1000
Cc1nc2ccc(-c3ccc4c(c3)CN(c3ncnc5c3CC(C)(C)CC5)CCO4)cc2[nH]1	10 to 50
Cc1nc2ccc(-c3ccc4c(c3)CN(c3nc(CN(C)C)nc(C)c3C)CCO4)cc2[nH]1	10 to 50

SMILES	IC50 [nM]
Cc1nc2ncc(-c3ccc4c(c3)CN(c3nc(CN5CCC(F)(F)C5)nc5c3CC(C)(C)CC5)CCO4)cc2[nH]1	50 to 250
Cc1nc2ccc(-c3ccc4c(c3)CN(c3nc(CNCCF)nc5c3CC(C)(C)CC5)CCO4)cc2[nH]1	≤ 10
COc1ccc2c(N3CCOc4ccc(-c5cnc(Cl)c(NS(C)(=O)=O)c5)cc4C3)ncnc2c1	≤ 10
CC(N)CNS(=O)(=O)c1cc(-c2ccc3c(c2)CN(c2ncnc4c2CC(C)(C)CC4)CCO3)cnc1N (stereo unspecified)	50 to 250
COc1cc2nccc(N3CCOc4ccc(-c5cnc6nc(N)[nH]c6c5)cc4C3)c2cc1OC	≤ 10
Cc1ncnc(N2CCOc3ccc(-c4ccc5nc(N)ncc5c4)cc3C2)c1Cc1ccc(F)cc1	250 to 1000
CC[C@H]1CCc2c(ncnc2N2CCOc3ccc(-c4cnc(N)c(S(=O)(=O)NCC(C)(C)N)c4)cc3C2)C1	10 to 50
C=CCc1c(C)nc(CN(C)C)nc1N1CCOc2ccc(-c3cnc4sc(N)nc4c3)cc2C1	≤ 10
Cc1nc2ccc(-c3ccc4c(c3)CN(c3cc(C(C)C)ncn3)CCO4)cc2[nH]1	250 to 1000
CC1(C)CCc2ncnc(N3CCOc4ccc(-c5cnc(Cl)c(CS(C)(=O)=O)c5)cc4C3)c2C1	250 to 1000
COCCNCc1nc2c(c(N3CCOc4ccc(-c5ccc6nc(C)[nH]c6c5)cc4C3)n1)CC(C)(C)CC2	10 to 50
CC1(C)CCc2ncnc(N3CCOc4ccc(-c5cnc(N)c(S(=O)(=O)N[C@H]6CC[C@H](N)CC6)c5)cc4C3)c2C1	10 to 50
CC1(C)CCc2ncnc(N3CCOc4ccc(-c5cnc6[nH]c(C(F)F)nc6c5)cc4C3)c2C1	50 to 250
CN(C)C1CN(S(=O)(=O)c2cc(-c3ccc4c(c3)CN(c3ncnc5c3CC(C)(C)CC5)CCO4)cnc2N)C1	50 to 250
CN1CC[C@H](CNS(=O)(=O)c2cc(-c3ccc4c(c3)CN(c3ncnc5c3CC(C)(C)CC5)CCO4)cnc2N)C1	50 to 250
CCNc1nc2ccc(-c3ccc4c(c3)CN(c3ccnc5ccccc35)CCO4)cc2[nH]1	≤ 10
Cc1nc2ncc(-c3ccc4c(c3)CN(c3ncnc5c3CC(C)(C)CC5)CCO4)cc2[nH]1	10 to 50
c1cc(N2CCOc3ccc(-c4ccc5nc[nH]c5c4)cc3C2)ncn1	250 to 1000
Cc1nc2ccc(-c3ccc4c(c3)CN(c3ncnc(C)c3Cc3ccc(Cl)cc3)CCO4)cc2[nH]1	10 to 50
Cc1nc2ccc(-c3ccc4c(c3)CN(c3ncnc(C)c3Cc3cccc(C(F)(F)F)c3)CCO4)cc2[nH]1	50 to 250
c1ccc2c(N3CCOc4ccc(-c5ccc6[nH]ncc6c5)cc4C3)ccnc2c1	250 to 1000
CC(O)CNS(=O)(=O)c1cc(-c2ccc3c(c2)CN(c2ncnc4c2CC(C)(C)CC4)CCO3)cnc1N (stereo unspecified)	10 to 50

SMILES	IC50 [nM]
CC[C@H]1CCc2c(ncnc2N2CCOc3ccc(-c4cnc(N)c(S(=O)(=O)N5C[C@@H]6C[C@H]5CN6)c4)cc3C2)C1	10 to 50
CC1(C)CCc2ncnc(N3CCOc4ccc(-c5cnc(N)c(S(=O)(=O)N6CC[C@H](N)C6)c5)cc4C3)c2C1	10 to 50
COc1ccc2c(N3CCOc4ccc(-c5ccc(-c6nc7ccccc7[nH]6)cc5)cc4C3)nc(C)nc2c1	250 to 1000
Cc1ncnc(N2CCOc3ccc(-c4ccc5nc(N)nn5c4)cc3C2)c1Cc1ccc(F)cc1	50 to 250
CCc1c(C)ncnc1N1CCOc2ccc(-c3cnc4nc(C)[nH]c4c3)cc2C1	50 to 250
CNc1ncc(-c2ccc3c(c2)CN(c2ncnc4c2CC(C)(C)CC4)CCO3)cc1S(=O)(=O)NCCO	10 to 50
Cc1ncc(-c2ccc3c(c2)CN(c2ncnc4c2CC(C)(C)CC4)CCO3)cc1NS(C)(=O)=O	10 to 50
Cc1nc2cc(-c3ccc4c(c3)CN(c3nc(CN(C)C)nc(C)c3CC(C)C)CCO4)ccc2[nH]1	250 to 1000
Cc1nc2ccc(-c3ccc4c(c3)CN(c3ncnc(C(C)C)c3C)CCO4)cc2[nH]1	50 to 250
Cc1nc(CN(C)C)nc(N2CCOc3ccc(-c4ccc5[nH]c(CF)nc5c4)cc3C2)c1Cc1ccc(F)cc1	≤ 10
Cc1nc2ccc(-c3ccc4c(c3)CN(c3ncnc5c(C#N)c6n(c35)CCCC6)CCO4)cc2[nH]1	50 to 250
CCNc1nc2ccc(-c3ccc4c(c3)CN(c3nc(C)nc5cc(F)ccc35)CCO4)cc2[nH]1	≤ 10
COc1c(OCC(C)C)ccc2c(N3CCOc4ccc(-c5ccc6nc(C)[nH]c6c5)cc4C3)ncnc12	50 to 250
Cc1ccc2ncnc(N3CCOc4ccc(-c5cnc6nc(N)[nH]c6c5)cc4C3)c2c1	≤ 10
CC(O)c1nc2cc(-c3ccc4c(c3)CN(c3ncnc5c3CC(C)(C)CC5)CCO4)cnc2[nH]1 (stereo unspecified)	50 to 250
CC1(C)CCc2ncnc(N3CCOc4ccc(-c5cnc(N)c(S(=O)(=O)N[C@@H]6CCNC6)c5)cc4C3)c2C1	10 to 50
Cc1nc2c(C)cc(-c3ccc4c(c3)CN(c3ncnc5cccnc35)CCO4)cc2[nH]1	50 to 250
Cc1nc2ncc(-c3ccc4c(c3)CN(c3ncnc5c3CC(F)(F)CC5)CCO4)cc2[nH]1	250 to 1000
CC1(C)CCc2ncnc(N3CCOc4ccc(-c5cnc(O)c(S(=O)(=O)N6CC[C@H](N)C6)c5)cc4C3)c2C1	50 to 250
Cc1nc(CN(C)C)nc(N2CCOc3ccc(-c4ccc5scnc5c4)cc3C2)c1Cc1ccc(F)cc1	250 to 1000
COC(=O)Nc1nc2ccc(-c3ccc4c(c3)CN(c3nc(CN(C)C)nc5c3CC(C)(C)CC5)CCO4)cc2[nH]1	≤ 10
CCc1nc(CN(C)C)nc(N2CCOc3ccc(-c4ccc5[nH]c(C)nc5c4)cc3C2)c1C	10 to 50

SMILES	IC50 [nM]
Cc1nc2ncc(-c3ccc4c(c3)CN(c3ncnc5c3CCCC5(C)C)CCO4)cc2[nH]1	50 to 250
CC1=Cc2ncnc(N3CCOc4ccc(-c5cnc(N)c(S(=O)(=O)NCC6CCN(C)CC6)c5)cc4C3)c2CC1(C)C	50 to 250
Cc1ncnc(N2CCOc3ccc(-c4ccn5nc(N)nc5c4)cc3C2)c1Cc1ccc(F)cc1	10 to 50
CC1(C)CCc2ncnc(N3CCOc4ccc(-c5cnc(N)c(S(=O)(=O)NC[C@@H]6CCCNC6)c5)cc4C3)c2C1	50 to 250
CC(=O)OCc1nc2c(c(N3CCOc4ccc(-c5cnc6nc(C)[nH]c6c5)cc4C3)n1)CC(C)(C)CC2	10 to 50
CC1=Cc2ncnc(N3CCOc4ccc(-c5cnc(N)c(S(=O)(=O)NCC(C)(C)N)c5)cc4C3)c2CC1(C)C	10 to 50
Cc1nc2ccc(-c3ccc4c(c3)CN(c3ncnc5cc(F)ccc35)CCO4)cc2[nH]1	10 to 50
Cc1ncnc(N2CCOc3ccc(-c4ccc5nc(N)cn5c4)cc3C2)c1Cc1ccc(F)cc1	10 to 50
Cc1nc(CNCCF)nc(N2CCOc3ccc(-c4cnc5sc(N)nc5c4)cc3C2)c1C(C)C	≤ 10
COc1ccc2c(N3CCOc4ccc(-c5cnc6[nH]ccc6c5)cc4C3)nc(C)nc2c1	50 to 250
Cc1nc2ncc(-c3ccc4c(c3)CN(c3nc(CNC(C)C)nc5c3CC(C)(C)CC5)CCO4)cc2[nH]1	≤ 10
Cc1nc2ccc(-c3ccc4c(c3)CN(c3ncnc5cc(Br)ccc35)CCO4)cc2[nH]1	50 to 250
Cc1nc2ncc(-c3ccc4c(c3)CN(c3nc(CN(C)C(C)C)nc5c3CC(C)(C)CC5)CCO4)cc2[nH]1	≤ 10
Cc1ncnc(N2CCOc3ccc(-c4ccc(C(N)=O)cc4)cc3C2)c1Cc1ccc(F)cc1	10 to 50
Cc1nc(N)nc(N2CCOc3ccc(-c4ccc5[nH]cnc5c4)cc3C2)c1Cc1ccc(F)cc1	≤ 10
CCNc1nc2ccc(-c3ccc4c(c3)CN(c3cc(C)nc5ccccc35)CCO4)cc2[nH]1	≤ 10
Cc1nc2ccc(-c3ccc4c(c3)CN(c3ncnc(C)c3Cc3ccc(F)c(F)c3)CCO4)cc2[nH]1	10 to 50
CC1(C)CCc2ncnc(N3CCOc4ccc(-c5cnc(N)c(CS(C)(=O)=O)c5)cc4C3)c2C1	50 to 250
COc1ccc2c(N3CCOc4ccc(-c5ccc6nc(N)[nH]c6c5)cc4C3)nc(C)nc2c1	≤ 10
Cc1nc2ccc(-c3ccc4c(c3)CN(c3nc(CN5CC[C@@H](F)C5)nc5c3CC(C)(C)CC5)CCO4)cc2[nH]1	10 to 50

— the Kinase Knowledgebase extract (Sharma et al. 2016)
